Assay results: PMC10247784, “Physiological activation of human and mouse bitter taste receptors by bile acids” (Communications Biology, 2023)

Target: T1, mouse Tas2r123 (Mus musculus, UniProt P59528)
T1 construct: expressed in transfected cells; host or cells: HEK293T-Gα16gust44
T1 sequence (P59528 1-333): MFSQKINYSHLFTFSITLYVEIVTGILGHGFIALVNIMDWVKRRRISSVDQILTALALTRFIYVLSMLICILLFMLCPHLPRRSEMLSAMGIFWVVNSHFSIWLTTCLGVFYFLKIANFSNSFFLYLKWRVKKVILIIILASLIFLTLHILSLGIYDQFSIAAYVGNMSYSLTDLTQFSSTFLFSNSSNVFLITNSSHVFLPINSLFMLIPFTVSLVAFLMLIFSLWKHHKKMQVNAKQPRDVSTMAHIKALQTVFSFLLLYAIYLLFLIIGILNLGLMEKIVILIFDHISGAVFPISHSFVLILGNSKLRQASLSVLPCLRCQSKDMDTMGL
Test: Calcium imaging assay (FLIPR), HEK293T-Gα16gust44 cells transfected with mouse Tas2r123
Format: cell-based
Details: for Activation threshold concentration Tas2r123: p < 0.01 vs empty vector; for Δ F/F: Tas2r123
Procedure: This set of bile acids was chosen because of their commercial availability in high purities, their diversity within the class of bile acids and their previous detection and quantitation in human blood. Stock solutions were prepared in DMSO.
As basal growth medium for the HEK293T-Gα16gust44 cell line[17],[59] served Dulbecco’s modified eagle medium (DMEM) (Thermo Fisher Scientific, Darmstadt, Germany) supplemented with 10 % fetal bovine serum (Sigma-Aldrich, Steinheim, Germany), 2 mM L-glutamine (Sigma-Aldrich, Steinheim, Germany), 100 units/ml penicillin (Sigma Aldrich, Steinheim, Germany) and 100 µg/ml streptomycin (Sigma Aldrich, Steinheim, Germany). Growth conditions were 37 °C, 5 % CO2 and saturated air-humidity[60].
HEK293T-Gα16gust44 cells were seeded on poly-D-lysine (10 µg/ml) coated 96-well plates to reach a confluence of 40-60 % the next day. For transient transfection 150 ng of plasmid DNA containing the receptor of interest and 0.3 µl lipofectamine 2000 (Thermo Fisher Scientific, Darmstadt, Germany) per well were used and transfection took place according to the manual of lipofectamine 2000. […] The empty vector DNA (mock) was transfected as negative control[14],[41].
Cells were loaded using the calcium-sensitive fluorescent dye Fluo-4-AM (Abcam, Cambridge, Great Britain) in the presence of 2.5 mM probenecid (Sigma-Aldrich, Steinheim, Germany) the day after transfection[13],[41]. 1 h after loading, cells were washed with C1 buffer using a BioTek Cell Washer, incubated in the dark for half an hour and washed again. For automated agonist application and measurement of fluorescence changes, a FLIPR^TETRA device (Molecular Devices, San José, United States) was used. Viability of cells was tested by application of 100 nM Somatostatin 14 (Bachem, Bubendorf, Switzerland)[42].
Measured data were negative control corrected by subtracting the signal of the mock-transfected cells and exported to Microsoft Excel using the FLIPR software ScreenWorks 4.2. In Microsoft Excel software, standardization of maximum fluorescence intensities to the basal fluorescence and normalization to the buffer-only control was done to calculate the relative fluorescence changes (ΔF/F).
Initial screening experiments performed in duplicate wells were confirmed by at least one replication and representative traces were selected for display. All dose-response relationships were determined by three independent experiments (biological replicates) performed in duplicates (technical replicates). Threshold concentrations, defined as lowest substance concentrations leading to statistically significant elevated fluorescence changes in receptor-transfected cells compared with empty vector-transfected cells, were determined using SigmaPlot with Student’s t-test to evaluate statistical significance (p < 0.01).

Activation threshold concentration Tas2r123 [µM] | Δ F/F (conc. 0,01 mM) | Δ F/F (conc. 0,03 mM) | Δ F/F (conc. 0,001 mM) | Δ F/F (conc. 0,003 mM) | Δ F/F (conc. 0,0001 mM) | Δ F/F (conc. 0,0003 mM) | Structure (SMILES) | Δ F/F (conc. 0,1 mM) | Δ F/F (conc. 0,3 mM)
10 |  |  |  |  |  |  | C[C@H](CCC(=O)O)[C@H]1CC[C@H]2[C@@H]3CC[C@@H]4C[C@H](O)CC[C@]4(C)[C@H]3C[C@H](O)[C@]12C [Deoxycholic Acid, deoxycholic acid] |  | 
30 | -0.001074 | -0.000632 | 7.054e-5 | 0.000982 |  |  | C[C@H](CCC(=O)NCC(=O)O)[C@H]1CC[C@H]2[C@@H]3[C@H](O)C[C@@H]4C[C@H](O)CC[C@]4(C)[C@H]3C[C@H](O)[C@]12C [Glycocholic Acid, glycocholic acid] | -0.0006317 | -0.001006
10 | 0.06526 | 0.08617 | 0.01545 | 0.01427 | -5.942e-5 | -0.0007331 | C[C@H](CCC(=O)O)[C@H]1CC[C@H]2[C@@H]3[C@@H](O)C[C@@H]4C[C@H](O)CC[C@]4(C)[C@H]3CC[C@]12C [Ursodeoxycholic Acid, ursodeoxycholic acid] |  | 

Structure (SMILES) | Activation threshold concentration Tas2r123 [µM] | Δ F/F (conc. 0,01 mM) | Δ F/F (conc. 0,03 mM) | Δ F/F (conc. 0,001 mM) | Δ F/F (conc. 0,003 mM) | Δ F/F (conc. 0,0001 mM) | Δ F/F (conc. 0,0003 mM) | Δ F/F (conc. 0,1 mM) | Δ F/F (conc. 0,3 mM)
C[C@H](CCC(=O)O)[C@H]1CC[C@H]2[C@@H]3[C@H](O)C[C@@H]4C[C@H](O)CC[C@]4(C)[C@H]3C[C@H](O)[C@]12C [Cholic Acid, cholic acid] | 10 |  |  |  |  |  |  |  | 
C[C@H](CCC(=O)NCCS(=O)(=O)O)[C@H]1CC[C@H]2[C@@H]3[C@H](O)C[C@@H]4C[C@H](O)CC[C@]4(C)[C@H]3C[C@H](O)[C@]12C [Taurocholic Acid, taurocholic acid] | 100 | 0.015 | 0.02651 | 0.002404 | 0.009262 |  |  | 0.09205 | 0.1589
